Patent US7863315B2, “2-indolinone derivatives as selective histone deacetylase inhibitors” (Shenzhen Chipscreen Biosciences, Ltd., priority 2008, dated 2011)

Tests used:
[1] = system: total HDAC enzyme (HeLa extract); experiment: In vitro inhibition of total HDAC enzyme activity (HDAC Fluorimetric Assay/Drug Discovery Kit, BIOMOL); assay type: biochemical, human
Experimental: Measurement of in vitro inhibition of total HDAC enzyme activity:
The in vitro inhibition of total HDAC enzyme was determined by HDAC Fluorimetric Assay/Drug Discovery Kit (BIOMOL) according to manufacture's instruction. • 1. Add Assay buffer, diluted trichostatin A or test inhibitor to appropriate wells of the microtiter plate. Following table lists examples of various assay types and the additions required for each test.
• 2. Add diluted HeLa extract or other HDAC sample to all wells except those that are to be “No Enzyme Controls” (Blank). • 3. Allow diluted Fluor de LyS™ Substrate and the samples in the microtiter plate to equilibrate to assay temperature (25° C.). • 4. Initiate HDAC reactions by adding diluted substrate (25 μl) to each well and mixing thoroughly. • 5. Allow HDAC reactions to proceed for desired length of time and then stop them by addition of Fluor de Lys™ Developer (50 μl). Incubate plate at room temperature (25° C.) for 10-15 min. • 6. Read samples in a microtiter-plate reading fluorimeter capable of excitation at a wavelength in the range 350-380 nm and detection of emitted light in the range 440-460 nm.

[2] = system: HDAC3 (gdf11 reporter gene); experiment: HDAC subtype reporter gene assay, gdf11-promoter luciferase in HeLa cells; assay type: cell-based; settings: Homo sapiens, M-HeLa, read-out: % of SAHA Response for HDAC3 at 10 μM (gdf11 reporter gene), 24 hours
Experimental: (§1) Measurement of inhibition of HDAC subtypes activity in cells by reporter gene assay: HDAC subtype selectivity inhibition assay of tested compounds was carried out by several reporter gene assays experiments. Briefly, HeLa cells were seeded in 96-well plates the day before transfection to give a confluence of 50-80%. Cells were transfected with one of reporter gene plasmids containing a promoter sequences or response elements upstream of a luciferase gene construct using FuGene6 transfection reagent according to the manufacturer's instructions (Roche). The promoters or response elements including p21-promoter, gdf11-promoter, MEF-binding element (MEF2), Nur77-promoter were fused upstream to the luciferase gene reporter construct. For normalizing the transfection efficiency, a GFP expression plasmid was cotransfected. Cells were allowed to express protein for 24 hours followed by addition of individual compounds or the vehicle (DMSO). 24 hours later, the cells were harvested and the luciferase assays were performed using the luciferase assay kit according to the manufacturer's instructions (Promega). To normalize the data from the luciferase assays, GFP activity from transfected cells was measured in a microtiter-plate reading fluorimeter capable of excitation at a wavelength at 485 nm and detection of emitted light at 527 nm.

[3] = system: HDAC4/5 (MEF2 reporter gene); experiment: HDAC subtype reporter gene assay, MEF-binding element (MEF2) luciferase in HeLa cells; assay type: cell-based; settings: Homo sapiens, M-HeLa, read-out: % of SAHA Response for HDAC4/5 at 10 μM (MEF2 reporter gene), 24 hours
Experimental: as §1

lysine acetylation = experiment: ELISA assay of acetylation of lysine in HeLa cells; assay type: cell-based; settings: Homo sapiens, M-HeLa, 24 hours
Source text: Measurement of acetylation activity in cells on substrates:
ELISA Assay of Acetylation of Lysine
This assay is used to measure in vivo inhibition of HDAC6 in a cytoblot assay.
Materials and Reagent: • 1. 24-well tissue culture • 2. DMEM Medium containing 10% FBS • 3. 96-well white plate • 4. HeLa cell line • 5. M-PER Mammalian Protein Extraction Reagent (Pierce) • 6. Bradford assay reagent • 7. Acetylated-lysine polyclonal Antibody (Cell Signaling) • 8. HRP-labeled anti-rabbit IgG (Upstate) • 9. Coating Buffer: 15 mM Na2CO3, 35 mM NaHCO3 (pH 9.6) • 10. 10×PBS: 0.58M Na2HPO4, 0.17M NaH2PO4, 0.68M NaCl (pH 7.4) • 11. Wash Buffer:1×PBS containing 0.05% Tween-20 (PBST) • 12. Blocking Buffer:10 mg/ml bocine serum albumin (BSA) in PBS • 13. Antibody Dilution Buffer: 5 mg/ml BSA in PBST • 14. Enhanced chemiluminescence (ECL) (Amersham)
Procedure for performing the assay in 96-well plate: • 1. HeLa cells were seeded at a density of 60000 cells/500 μl/well in 24-well plate and incubated at 37° C. for 24 hours. • 2. Compounds were added and incubated for 24 hours at 37° C. • 3. Culture medium was removed, then washes the cells twice with ice-cold PBS. • 4. Add 100 μl/well of Protein Extraction Reagent and gently shake the mixture for 5 minutes. • 5. Collect the lysate to a 96-well plate respectively. Determine the concentration of protein by Bradford assay. • 6. Coat the wells of a 96-well white plate with 100 μl/well of 2.5 μg whole cell protein in Coating Buffer by incubating overnight at 4° C. • 7. Discard the uncoated proteins and wash the coated wells three times with 200 μl/well of PBST. • 8. Block coated wells by incubating the plate with 200 μl/well of Blocking Buffer for 1 hour at 37° C. • 9. Wells were aspirated and washed three times with 200 μl/well of PBST. • 10. After aspirating, 50 μl/well of Antibody Dilution Buffer containing acetylated-lysine polyclonal antibody (1:1000) were added to each well and incubated for 2 hour at 37° C. • 11. Wells were aspirated and washed three times with 200 μl/well of PBST. • 12. 50 μl/well of Antibody Dilution Buffer containing HRP-labeled anti-rabbit IgG (1:2000) were added to each well and incubated for 2 hour at 37° C. • 13. Wells were aspirated and washed three times with 200 μl/well of PBST. • 14. Wells were washed three times with 200 μl/well of purified water. • 15. Add 50 μl/well of ECL mixture, then read the plates on the plate reader.

| Structure (SMILES) | % of Inhibition on Total HDAC Enzyme at 30 μM [1] [%] | Emax at 10 µM [2] [%] | Emax at 10 µM [3] [%] | fold induction at 10 µM (lysine acetylation) |
| --- | --- | --- | --- | --- |
| Cc1[nH]c(/C=N/N=C2\C(=O)Nc3ccc(F)cc32)c(C)c1C(=O)NCCCCC(=O)Nc1ccccc1N [Example 7, 5-(5-(((5-fluoro-2-oxoindolin-3-ylidene)hydrazono)methyl)-2,4-dimethyl-1H-pyrrole-3-carboxamido)-N-(2-aminophenyl)pentanamide] | 2 | 7 | 23 | 1.58 |
| Cc1[nH]c(/C=N/N=C2\C(=O)Nc3ccc(F)cc32)c(C)c1C(=O)NCCCCC(=O)Nc1ccc(F)cc1N [Example 8, 5-(5-(((5-fluoro-2-oxoindolin-3-ylidene)hydrazono)methyl)-2,4-dimethyl-1H-pyrrole-3-carboxamido)-N-(2-amino-4-fluorophenyl)pentanamide] | −26 | 5 | 23 | 2.01 |
| Cc1[nH]c(/C=N/N=C2\C(=O)Nc3ccc(F)cc32)c(C)c1C(=O)NCCCCCC(=O)NO [Example 11, 6-(5-(((5-fluoro-2-oxoindolin-3-ylidene)hydrazono)methyl)-2,4-dimethyl-1H-pyrrole-3-carboxamido)-N-hydroxyhexanamide] | 86 | 49 | 27 | 1.87 |
| Cc1[nH]c(/C=N/N=C2\C(=O)Nc3ccc(F)cc32)c(C)c1C(=O)NCCCCCC(=O)Nc1ccc(F)cc1N [Example 12, 6-(5-(((5-fluoro-2-oxoindolin-3-ylidene)hydrazono)methyl)-2,4-dimethyl-1H-pyrrole-3-carboxamido)-N-(2-amino-4-fluorophenyl)hexanamide] | 14 | 6 | 35 | 1.84 |
| Cc1[nH]c(/C=N/N=C2\C(=O)Nc3ccc(F)cc32)c(C)c1C(=O)NCCCCCC(=O)Nc1ccccc1N [Example 13, 6-(5-(((5-fluoro-2-oxoindolin-3-ylidene)hydrazono)methyl)-2,4-dimethyl-1H-pyrrole-3-carboxamido)-N-(2-aminophenyl)hexanamide] | 30 | 13 | 18 | 3.08 |

Now from value to compound, other results behind:

| % of Inhibition on Total HDAC Enzyme at 30 μM [1] [%] | Structure (SMILES) | Emax at 10 µM [2] [%] | Emax at 10 µM [3] [%] | fold induction at 10 µM (lysine acetylation) |
| --- | --- | --- | --- | --- |
| 89 | O=C(CCCCCNC(=O)c1ccc(/C=N/N=C2\C(=O)Nc3ccc(F)cc32)cc1)NO [Example 31, 6-(4-(((5-fluoro-2-oxoindolin-3-ylidene)hydrazono)methyl)benzamido)-N-hydroxyhexanamide] | 36 | 30 | 1.67 |
| 20 | Nc1ccccc1NC(=O)CCCCCNC(=O)c1ccc(/C=N/N=C2\C(=O)Nc3ccc(F)cc32)cc1 [Example 32, 6-(4-(((5-fluoro-2-oxoindolin-3-ylidene)hydrazono)methyl)benzamido)-N-(2-aminophenyl)hexanamide] | 12 | 28 | 1.32 |
| 22 | Nc1ccccc1NC(=O)CCCCCCCNC(=O)c1ccc(/C=N/N=C2\C(=O)Nc3ccc(F)cc32)cc1 [Example 35, 8-(4-(((5-fluoro-2-oxoindolin-3-ylidene)hydrazono)methyl)benzamido)-N-(2-aminophenyl)octanamide] | 36 | 46 | 1.04 |
| 96 | O=C(CCCCCNC(=O)c1ccc(/C=C2\C(=O)Nc3ccc(F)cc32)cc1)NO [Example 41, 6-(4-((5-fluoro-2-oxoindolin-3-ylidene)methyl)benzamido)-N-hydroxyhexanamide] | 11 | 21 | 1.6 |
